Like-named read-outs stand apart in the source and are kept apart here.
Tests used:
heart slice cultures [1] = test system: heart slice cultures
Protocol: Additional analysis was performed on 3 slices, at 30 days after plating using a confocal laser scanning microscope (Zeiss), following incubation with 5 μM fluo-4 AM (Invitrogen, France) for 20 min at 37° C.
To monitor spontaneous Ca2+ spiking, heart slice cultures, were loaded with 5 μmol/L Fluo-4 AM ester and the temporal change of fluorescent intensity was measured at physiological temperature (37° C.).

heart slice cultures [2] = details: 10, 100 nmol/L and 1 μmol/L, 30 days after plating, 37° C., monitored 3 min after stimulation
Protocol: (§1) Cultures were prepared from ventricular sections of 3 day-old rats (Charles River, France) or 8 weeks-old human embyros. The hearts were removed and placed in Phosphate-Buffered Saline (PBS), atria were removed and the ventricles sliced at 1 mm-thickness using a rodent heart matrix (Harvard Apparatus). The heart slices were immediately transferred to a Millicell-CM 0.4 μm membrane (Millipore, France) and the insert placed into a 6 well-plate containing 1 ml of medium.
(§2) The culture medium consisted of DMEM/F12 medium supplemented with 20% Knockout Serum Replacement, 1% non essential amino acids, 2 mM L-glutamine, 0.1 mM β-mercaptoethanol, and 1% PS (Invitrogen, France). Heart slices were maintained for 30-80 days at 37° C. in a humidified atmosphere containing 5% CO2.
(§3) Further functional characterization of the contractile function of ventricular slices was carried out on 24 slices, at 30 days after plating, using a stereomicroscope and a temperature-controlled stage set at 37° C., following incubation with 10, 100nM and 1 μM of epinephrine (Sigma, France). Beating frequency was monitored 3 min after pharmacological stimulation.

human heart slices = details: slices from 8 week-old human embryo
Protocol: as §1, §2, §3

Structure (SMILES): CNC[C@H](O)c1ccc(O)c(O)c1 [epinephrine]
- Ca2+-transient amplitude and frequency (heart slice cultures [1]; heart slice loaded with fluo-4, confocal analysis): dose-dependent increase in Ca2+-transient amplitude and frequency
- concentration giving maximal response (heart slice cultures [1]; tested 10, 100 nmol/L and 1 μmol/L): 1 µmol/L
- spontaneous beating frequencies of heart slice (heart slice cultures [2]): increased the spontaneous beating frequencies of heart slice in dose-response manner
- spontaneous beating frequencies of heart slice (heart slice cultures [2]; listed as Epinepfrine): increased the frequencies of spontaneous beating in dose-response manner
- spontaneous beating frequency of human heart slices (human heart slices): increased spontaneous beating frequency of both human heart slices, in a dose-dependent manner
- spontaneous beating frequency of human heart slices (human heart slices; listed as Epinephrine): increases the frequencies of beating in human heart slices
